# In PubChem BioAssay AID602479 (National Center for Advancing Translational Sciences (NCATS), 2012):
# Tested on: mouse liver microsomes, metabolic half-life
# Experiment: qHTS Assay for Inhibitors of Bacillus subtilis Sfp phosphopantetheinyl transferase (PPTase): Mouse Liver Microsome Stability (Half Time)
# Excerpt: PPTases are responsible for the activation of a variety of pathogen-associated virulence factors. Among these compounds are toxins such as mycolactone from Mycobacterium ulcerans, siderophores such as vibriobactin from Vibrio cholerae or mycobactin from Mycobacterium tuberculosis, as well as the mycolic acids which form the waxy cell wall of Mycobacteria. The biosyntheses of these natural products are considered attractive targets for drug design. After a large qHTS and several follow-up assays, a small molecule was identified and this in vitro ADME assay serves to better characterize its properties.
# This bioassay provides profiling data on mouse liver microsome stability.
# NIH Chemical Genomics Center [NCGC]
# NIH Molecular Libraries Probe Centers Network [MLPCN]
# Assay Submitter (PI): Michale Burkart, University of California, San Diego
# 1uM of compound in incubated in mouse liver microsome; the reference compound is ketanserin. Compounds are incubated at 37 degrees C for different time periods: 0, 5, 15, 30, 45, and 60 minutes. Samples are analyzed with LC-MS/MS.
structure (smiles),measurement,value
COc1ccnc(NC(=S)N2CCN(c3ncc(C(F)(F)F)cc3Cl)CC2)c1,microsomal half-life,49.5 min
